Assay results published in ChEMBL document CHEMBL5244205, “Discovery of tricyclic dipyrrolopyridine derivatives as novel JAK inhibitors” (Bioorg Med Chem, 2017).

Assays:
[1] = target: Tyrosine-protein kinase JAK1 (Homo sapiens, UniProt P23458)
Description: Inhibition of human JAK1 kinase domain using biotin-Lyn-substrate-2 as substrate incubated for 1 hr by ELISA

in vitro [2] = settings: Sprague-Dawley, rat, liver microsomes, CLH
[3] = target: T1, Tyrosine-protein kinase JAK3 (Homo sapiens, UniProt P52333)
T1 sequence (P52333 whole entry): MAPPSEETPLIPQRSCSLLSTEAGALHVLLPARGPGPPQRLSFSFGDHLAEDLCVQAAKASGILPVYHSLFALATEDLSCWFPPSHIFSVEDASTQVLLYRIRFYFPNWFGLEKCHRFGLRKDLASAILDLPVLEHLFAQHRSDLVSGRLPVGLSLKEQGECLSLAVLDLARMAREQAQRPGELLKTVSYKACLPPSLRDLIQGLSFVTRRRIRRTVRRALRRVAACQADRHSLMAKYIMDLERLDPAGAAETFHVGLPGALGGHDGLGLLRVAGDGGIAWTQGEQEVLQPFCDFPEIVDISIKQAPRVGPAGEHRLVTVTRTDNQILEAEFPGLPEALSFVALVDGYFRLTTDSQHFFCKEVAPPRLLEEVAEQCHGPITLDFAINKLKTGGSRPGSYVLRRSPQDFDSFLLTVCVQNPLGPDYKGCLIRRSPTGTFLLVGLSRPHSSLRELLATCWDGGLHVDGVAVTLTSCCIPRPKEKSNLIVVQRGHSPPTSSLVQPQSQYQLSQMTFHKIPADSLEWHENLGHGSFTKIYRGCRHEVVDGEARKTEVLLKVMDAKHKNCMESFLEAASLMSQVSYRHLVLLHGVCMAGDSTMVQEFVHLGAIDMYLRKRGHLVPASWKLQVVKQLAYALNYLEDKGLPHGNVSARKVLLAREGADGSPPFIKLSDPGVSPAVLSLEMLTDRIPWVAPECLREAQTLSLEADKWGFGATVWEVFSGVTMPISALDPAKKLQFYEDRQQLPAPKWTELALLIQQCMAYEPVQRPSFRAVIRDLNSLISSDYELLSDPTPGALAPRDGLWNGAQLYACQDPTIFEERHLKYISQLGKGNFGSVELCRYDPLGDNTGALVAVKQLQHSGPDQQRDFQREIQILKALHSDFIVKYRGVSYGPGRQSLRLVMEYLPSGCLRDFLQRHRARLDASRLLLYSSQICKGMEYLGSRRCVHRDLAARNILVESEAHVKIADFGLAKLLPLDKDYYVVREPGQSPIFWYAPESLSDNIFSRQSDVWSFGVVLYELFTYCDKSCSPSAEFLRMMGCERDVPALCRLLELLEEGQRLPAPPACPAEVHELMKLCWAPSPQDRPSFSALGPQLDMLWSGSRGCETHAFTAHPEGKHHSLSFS
Description: Inhibition of human JAK3 kinase domain using biotin-Lyn-substrate-2 as substrate incubated for 1 hr by ELISA

in vitro [4] = settings: PAMPA, pH 6.5, permeability
Description: Permeability of the compound in pH 6.5 incubated for 2 hrs by PAMPA based HPLC analysis

[5] = target: Tyrosine-protein kinase JAK2 (Homo sapiens, UniProt O60674)
Tyrosine-protein kinase JAK2, sequence (O60674 whole entry): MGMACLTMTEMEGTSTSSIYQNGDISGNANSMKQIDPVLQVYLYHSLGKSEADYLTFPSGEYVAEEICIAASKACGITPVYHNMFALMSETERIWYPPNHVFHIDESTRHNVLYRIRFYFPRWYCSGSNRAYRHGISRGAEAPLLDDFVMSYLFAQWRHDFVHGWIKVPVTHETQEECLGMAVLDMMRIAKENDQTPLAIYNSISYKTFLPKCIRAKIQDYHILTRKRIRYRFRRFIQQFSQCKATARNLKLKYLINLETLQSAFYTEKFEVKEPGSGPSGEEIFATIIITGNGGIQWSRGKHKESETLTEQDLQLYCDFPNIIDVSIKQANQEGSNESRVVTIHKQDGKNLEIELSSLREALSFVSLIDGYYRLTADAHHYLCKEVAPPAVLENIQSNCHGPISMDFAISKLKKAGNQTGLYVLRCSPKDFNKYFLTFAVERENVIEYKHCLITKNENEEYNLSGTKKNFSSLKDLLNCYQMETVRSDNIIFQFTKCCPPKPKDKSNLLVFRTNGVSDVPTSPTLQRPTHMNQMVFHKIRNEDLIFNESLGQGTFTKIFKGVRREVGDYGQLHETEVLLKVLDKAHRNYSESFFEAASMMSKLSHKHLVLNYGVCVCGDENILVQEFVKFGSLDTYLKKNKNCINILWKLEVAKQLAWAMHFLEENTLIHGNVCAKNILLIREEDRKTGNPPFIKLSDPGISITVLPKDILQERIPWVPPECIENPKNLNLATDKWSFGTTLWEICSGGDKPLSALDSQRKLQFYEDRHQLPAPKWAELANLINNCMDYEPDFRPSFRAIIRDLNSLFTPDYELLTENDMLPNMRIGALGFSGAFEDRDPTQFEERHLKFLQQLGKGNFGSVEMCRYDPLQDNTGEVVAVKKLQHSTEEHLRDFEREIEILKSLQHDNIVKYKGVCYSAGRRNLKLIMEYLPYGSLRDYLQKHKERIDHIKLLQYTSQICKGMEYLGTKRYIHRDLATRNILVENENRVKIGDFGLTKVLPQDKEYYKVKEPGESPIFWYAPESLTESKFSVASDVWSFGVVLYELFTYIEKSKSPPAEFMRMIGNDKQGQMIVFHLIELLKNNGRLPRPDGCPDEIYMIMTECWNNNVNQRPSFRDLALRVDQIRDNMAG
Description: Inhibition of human JAK2 kinase domain using biotin-Lyn-substrate-2 as substrate incubated for 1 hr by ELISA

CYP3A4 = CYP3A4 (Homo sapiens, UniProt P08684); experiment: in vitro; settings: liver microsomes, probe midazolam, TDI
CYP3A4, sequence (P08684 whole entry): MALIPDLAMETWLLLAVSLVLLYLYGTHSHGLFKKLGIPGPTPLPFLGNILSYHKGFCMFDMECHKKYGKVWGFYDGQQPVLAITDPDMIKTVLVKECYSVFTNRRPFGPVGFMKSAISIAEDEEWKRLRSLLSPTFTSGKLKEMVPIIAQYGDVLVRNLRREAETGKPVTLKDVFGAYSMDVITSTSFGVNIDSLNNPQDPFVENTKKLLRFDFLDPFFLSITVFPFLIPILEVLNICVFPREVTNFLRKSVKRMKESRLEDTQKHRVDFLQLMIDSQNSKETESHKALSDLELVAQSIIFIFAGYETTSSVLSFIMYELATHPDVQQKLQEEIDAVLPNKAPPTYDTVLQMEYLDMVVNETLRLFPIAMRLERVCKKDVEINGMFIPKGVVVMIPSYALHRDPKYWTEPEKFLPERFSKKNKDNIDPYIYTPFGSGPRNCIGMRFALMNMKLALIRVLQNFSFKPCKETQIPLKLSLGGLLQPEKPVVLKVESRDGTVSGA

Tyrosine-protein kinase JAK1, sequence (P23458 whole entry): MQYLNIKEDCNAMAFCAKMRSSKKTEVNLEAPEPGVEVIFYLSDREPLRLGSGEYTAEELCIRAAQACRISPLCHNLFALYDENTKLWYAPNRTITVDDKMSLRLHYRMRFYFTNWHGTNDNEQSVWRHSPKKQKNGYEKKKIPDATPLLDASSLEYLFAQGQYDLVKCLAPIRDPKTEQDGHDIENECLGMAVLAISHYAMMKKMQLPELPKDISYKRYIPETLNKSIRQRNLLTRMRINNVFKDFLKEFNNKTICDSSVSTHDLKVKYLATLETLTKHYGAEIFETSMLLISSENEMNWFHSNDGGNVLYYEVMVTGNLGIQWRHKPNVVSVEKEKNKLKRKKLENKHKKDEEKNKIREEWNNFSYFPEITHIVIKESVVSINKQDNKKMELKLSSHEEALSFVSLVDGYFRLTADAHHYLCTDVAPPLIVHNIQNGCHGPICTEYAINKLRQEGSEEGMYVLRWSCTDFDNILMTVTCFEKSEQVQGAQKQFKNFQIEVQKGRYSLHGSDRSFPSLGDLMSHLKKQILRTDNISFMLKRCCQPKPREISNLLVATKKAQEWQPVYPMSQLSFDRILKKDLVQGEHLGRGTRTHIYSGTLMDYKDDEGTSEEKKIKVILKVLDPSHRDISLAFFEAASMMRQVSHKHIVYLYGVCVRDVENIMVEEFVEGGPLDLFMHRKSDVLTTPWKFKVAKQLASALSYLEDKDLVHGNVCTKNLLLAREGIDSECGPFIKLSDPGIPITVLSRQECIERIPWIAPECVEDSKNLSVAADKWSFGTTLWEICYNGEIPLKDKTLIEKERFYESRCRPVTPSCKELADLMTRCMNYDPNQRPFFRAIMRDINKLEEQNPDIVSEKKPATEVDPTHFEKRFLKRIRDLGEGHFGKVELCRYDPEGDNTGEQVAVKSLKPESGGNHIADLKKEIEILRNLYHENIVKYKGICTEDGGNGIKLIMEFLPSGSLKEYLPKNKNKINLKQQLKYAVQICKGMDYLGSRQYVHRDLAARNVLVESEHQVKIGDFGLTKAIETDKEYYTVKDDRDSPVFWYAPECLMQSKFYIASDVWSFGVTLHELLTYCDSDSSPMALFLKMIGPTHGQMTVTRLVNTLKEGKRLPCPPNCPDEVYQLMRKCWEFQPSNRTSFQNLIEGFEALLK

Row | IC50 [1] | CLint scaled at 0.75 h, 0.2 µM (in vitro [2]) | IC50 [3] | Papp at 2 h (in vitro [4]) | IC50 [5] | inhibition at 20 min, 5 µM (CYP3A4) | SMILES
1 | 9 nM | 195 mL/min/kg | 1.6 nM | 8.8 ×10⁻⁶ cm/s | 4.5 nM | 29% | C[C@@H]1CCN(c2ccc(C#N)cn2)C[C@@H]1n1c(=O)[nH]c2cnc3[nH]ccc3c21 (racemic)
2 | – | – | – | 2.5 ×10⁻⁶ cm/s | – | – | C[C@@H]1CCN(C(=O)CC#N)C[C@@H]1n1c(=O)n(C)c2cnc3[nH]ccc3c21 (racemic)
3 | – | 47 mL/min/kg | 1.1 nM | 3.8 ×10⁻⁶ cm/s | 2.2 nM | 91% | C[C@@H]1CCN(C(=O)CC#N)C[C@@H]1n1cc(C#N)c2cnc3[nH]ccc3c21 (racemic)
4 | 0.43 nM | 154 mL/min/kg | 0.17 nM | 26 ×10⁻⁶ cm/s | 0.3 nM | 44% | Cc1cc2cnc3[nH]ccc3c2n1[C@H]1CN(C(=O)CC#N)CC[C@H]1C (racemic)
5 | 58 nM | 44 mL/min/kg | 7.1 nM | 6.3 ×10⁻⁶ cm/s | 15 nM | 18% | C[C@@H]1CCN(C(=O)C(C)(C)C#N)C[C@@H]1n1c(=O)[nH]c2cnc3[nH]ccc3c21 (racemic)
6 | 3.2 nM | – | 1.4 nM | < 0.8 ×10⁻⁶ cm/s | 3.5 nM | 88% | C[C@@H]1CCN(C(=O)Cn2cnnn2)C[C@@H]1n1c(=O)[nH]c2cnc3[nH]ccc3c21 (racemic)
7 | 13 nM | 249 mL/min/kg | 2.1 nM | 11 ×10⁻⁶ cm/s | 7 nM | 11% | C[C@@H]1CCN(C(=O)N2CCCCC2)C[C@@H]1n1c(=O)[nH]c2cnc3[nH]ccc3c21 (racemic)
8 | 19 nM | – | 5.5 nM | 1.3 ×10⁻⁶ cm/s | 12 nM | 61% | C[C@@H]1CCN(C(=O)N2CCOCC2)C[C@@H]1n1c(=O)[nH]c2cnc3[nH]ccc3c21 (racemic)
9 | – | 309 mL/min/kg | 2.5 nM | 23 ×10⁻⁶ cm/s | 4.9 nM | 62% | Cc1c[nH]c2ncc3ccn([C@H]4CN(C(=O)CC#N)CC[C@H]4C)c3c12 (racemic)
10 | 7.5 nM | – | 4.1 nM | 5.9 ×10⁻⁶ cm/s | 11 nM | – | C[C@@H]1CCN(C(=O)CC#N)C[C@@H]1n1ncc2cnc3[nH]ccc3c21 (racemic)
11 | – | 419 mL/min/kg | 0.38 nM | 13 ×10⁻⁶ cm/s | 4.1 nM | 90% | C[C@@H]1CCN(C(=O)CC#N)C[C@@H]1n1ccc2cnc3[nH]cc(C#N)c3c21 (racemic)
12 | – | 89 mL/min/kg | 200 nM | 21 ×10⁻⁶ cm/s | 390 nM | 88% | C[C@H]1CCN(C(=O)CC#N)C[C@H]1n1ccc2cnc3[nH]ccc3c21

Row | SMILES | IC50 [1] | CLint scaled at 0.75 h, 0.2 µM (in vitro [2]) | IC50 [3] | Papp at 2 h (in vitro [4]) | IC50 [5] | inhibition at 20 min, 5 µM (CYP3A4)
13 | C[C@@H]1CCN(C(=O)CC#N)C[C@@H]1n1ccc2cnc3[nH]ccc3c21 (racemic) | 1.1 nM | 110 mL/min/kg | 0.44 nM | 13 ×10⁻⁶ cm/s | 1 nM | 90%
